Columns and labels:
endogenous TFEB = experiment: TFEB nuclear translocation, immunocytochemistry high-content imaging; type: cell-based; settings: PKIS2 primary screening
endogenous TFE3 = experiment: TFE3 nuclear translocation, immunocytochemistry high-content imaging; type: cell-based; settings: PKIS2 primary screening
SH-SY5Y cells [1] = settings: PKIS2 primary screening; for DQ Intensity: DQ Red BSA intensity; for DQ Spot: DQ Red BSA spot count
Excerpt: The PKIS2 Library was supplied by The Structural Genomics Consortium at the University of North Carolina at Chapel Hill.

SH-SY5Y cells [2] = experiment: AK (adenylate kinase) release ToxiLight cytotoxicity assay; settings: PKIS2 primary screening; note: reference of the scale not given here
SH-SY5Y cells [3] = experiment: Nuclear count from microscopy images (cellular growth and toxicity); settings: PKIS2 primary screening; note: reference of the scale not given here
Throughout, for DQ Intensity: reference of the scale not given here.
Throughout, for DQ Spot: reference of the scale not given here.

Row | Compound | TFEB % (endogenous TFEB) [%] | TFE3 % (endogenous TFE3) [%] | DQ Intensity (SH-SY5Y cells [1]) | DQ Spot (SH-SY5Y cells [1]) | AK (SH-SY5Y cells [2]) | Nuclear Count (SH-SY5Y cells [3])
1 | CNc1nc(-c2ccc3c(N)n[nH]c3c2)cc(N2C[C@@H](C(=O)NC3CCCCC3)OC[C@H]2C)n1 [GSK2375584] | 4.51 | 6.46 | 111.29 | 104.60 | 76.99 | 127.70
2 | CC[C@@H]1CO[C@H](C(=O)Nc2ccccc2)CN1c1cc(-c2ccc3c(N)n[nH]c3c2)nc(NC)n1 [GSK2376236] | 3.52 | 8.81 | 102.90 | 87.99 | 114.69 | 121.19
3 | Cc1cc(-c2ccc3c(c2)CC[C@@H](N[C@@H](C)c2ccccc2)C3)cnc1N [GW412617] | 15.77 | 41.99 | 86.08 | 45.16 | 35.11 | 101.83
4 | Cc1cc(NCC(c2ccccc2)c2ccccc2)nc(NCc2ccc(C(F)(F)F)cc2)n1 [GW497681] | 10.26 | 31.99 | 118.39 | 90.21 | 143.14 | 83.96
5 | Cc1ccc(Nc2ccnc(Nc3ccc4c(c3)CS(=O)(=O)C4)n2)cc1O [GW579362] | 7.59 | 18.94 | 160.36 | 117.73 | 117.18 | 72.17
6 | Cc1ccc(Nc2ccnc(Nc3ccc(C)c(F)c3)n2)cc1O [GW582868] | 8.86 | 12.77 | 80.99 | 94.80 | 95.37 | 87.67
7 | CCS(=O)(=O)c1ccc(OC)c(Nc2ncc(-c3ccc(F)cc3)o2)c1 [GW591947] | 4.85 | 8.80 | 82.17 | 99.73 | 64.95 | 114.66
8 | CC(C)S(=O)(=O)N1CCN(Cc2ccc3c(c2)nc(NC(=O)c2ccsc2)n3C[C@H](O)c2ccccc2)CC1 [GW635815] | 6.81 | 6.25 | 100.23 | 98.01 | 78.91 | 125.41
9 | N#CCc1ccc(Nc2nccc(Nc3ccc(Oc4ccccc4)cc3)n2)cc1 [GW639905] | 8.66 | 15.01 | 108.02 | 113.65 | 115.45 | 107.11
10 | COC(=O)Nc1nc2ccc(Oc3ccc(NC(=O)Nc4cc(C(F)(F)F)ccc4F)cc3)cc2[nH]1 [GW654607] | 5.38 | 33.87 | 53.63 | 73.16 | 90.67 | 81.29
11 | NC(=O)c1cccc(Nc2nccc(Nc3ccc(Oc4cccc(Cl)c4)c(Cl)c3)n2)c1 [GW659008] | 11.92 | 11.36 | 100.37 | 103.30 | 92.69 | 86.88
12 | NC(=O)c1cccc(Nc2nccc(Nc3ccc(Oc4c(Cl)cccc4Cl)c(Cl)c3)n2)c1 [GW659009] | 6.80 | 20.40 | 60.26 | 79.24 | 74.50 | 101.88
13 | O=C(NCCCN1CCOCC1)c1cccc(Nc2nccc(Nc3ccc(Oc4ccccc4)cc3)n2)c1 [GW663929] | 4.62 | 16.30 | 88.80 | 80.91 | 108.46 | 103.04
14 | COC(=O)Nc1nc2ccc(Oc3ccc(CC(=O)Nc4cc(C(F)(F)F)ccc4F)cc3)cc2[nH]1 [GW680903] | 2.10 | 12.77 | 59.92 | 85.78 | 72.57 | 109.57
15 | COC(=O)Nc1nc2ccc(Oc3ccc(NC(=O)Nc4cc(C(F)(F)F)ccc4F)cn3)cc2[nH]1 [GW681170] | 3.10 | 18.59 | 102.17 | 112.93 | 96.18 | 116.32
16 | Cc1n[nH]c2cc(Nc3ccnc(Nc4cccc(CN5CCOCC5)c4)n3)ccc12 [GW682569] | 6.60 | 9.15 | 93.91 | 112.57 | 83.50 | 85.02
17 | O=C(Nc1ccc(Oc2ccc3nc(NC(=O)c4ccco4)[nH]c3c2)cc1)Nc1cc(C(F)(F)F)ccc1F [GW683134] | 14.35 | 30.65 | 82.17 | 71.77 | 83.90 | 71.64
18 | COC(=O)Nc1nc2ccc(Oc3ccc(NC(=O)Nc4cc(C(F)(F)F)ccc4F)cc3)cc2n1C [GW692089] | 7.12 | 18.60 | 156.96 | 122.99 | 128.42 | 60.83
19 | COC(=O)Nc1nc2ccc(Oc3ccc(NC(=O)Nc4cc(C(F)(F)F)ccc4Cl)cc3)cc2[nH]1 [GW697465] | 5.88 | 30.84 | 71.39 | 100.12 | 89.89 | 70.87
20 | COC(=O)Nc1nc2ccc(Oc3ccc(NC(=O)Nc4cccc(SC)c4)cc3)cc2[nH]1 [GW697999] | 5.11 | 19.88 | 145.78 | 122.82 | 75.30 | 71.32
21 | COC(=O)Nc1nc2ccc(Oc3ccc(NC(=O)Nc4cc(F)ccc4F)cc3)cc2[nH]1 [GW701424] | 4.66 | 22.54 | 130.75 | 124.31 | 149.19 | 68.78
22 | CN1CCN(CCNc2nc3ccc(Oc4ccc(NC(=O)Nc5cc(C(F)(F)F)ccc5F)cc4)cc3[nH]2)CC1 [GW768504] | 4.72 | 12.94 | 103.13 | 113.95 | 155.92 | 72.38
23 | COc1ccc(C)c(Nc2ccnc(Nc3ccc(-c4cnc[nH]4)cc3)n2)c1 [GW784041] | 16.17 | 11.03 | 109.83 | 101.33 | 81.91 | 105.20
24 | Cc1c2ccc(N(C)c3ccnc(Nc4cccc(S(N)(=O)=O)c4)n3)cc2nn1Cc1ccccc1 [GW787226] | 8.93 | 15.06 | 91.24 | 90.69 | 80.53 | 121.46
25 | CN(c1ccc(NC(=O)Nc2cc(C(F)(F)F)ccc2F)cc1)c1ccnc(Nc2ccc(S(N)(=O)=O)cc2)n1 [GW809893] | 22.40 | 18.55 | 76.59 | 83.26 | 111.00 | 46.13
26 | CN(c1ccc2c(c1)nc(NCc1ccccc1)n2C)c1ccnc(Nc2ccc(CS(C)(=O)=O)cc2)n1 [GW811603] | 7.98 | 9.93 | 108.65 | 109.65 | 192.03 | 118.98
27 | CN(c1ccc2c(c1)nc(NCc1ccc(F)cc1)n2C)c1ccnc(Nc2ccc(CS(C)(=O)=O)cc2)n1 [GW813244] | 4.30 | 13.77 | 93.66 | 106.18 | 87.46 | 104.49
